Experimental findings from article PMC7260336, “Identification of a species-specific aminotransferase in Pediococcus acidilactici capable of forming α-aminobutyrate” (AMB Express, 2020) are described below.

Each structure is given as a SMILES string.

Experiment [1] deals with T1, Aat (recombinant His-tagged aminotransferase) (Pediococcus acidilactici, UniProt E0NE36).
T1 construct: gene aspC; full length, C-terminal His tag (pEXP5-CT/TOPO), E. coli BL21(DE3), Ni-TED purified; gene about 1200 bp; cloning primers translate to N-terminus MSDKVNA and native C-terminus LKAKRA; locus tag contradictory: primers designed for GBO44_RS03485 in Methods, GBO44_RS04865 in Results
T1 sequence (E0NE36 1-394): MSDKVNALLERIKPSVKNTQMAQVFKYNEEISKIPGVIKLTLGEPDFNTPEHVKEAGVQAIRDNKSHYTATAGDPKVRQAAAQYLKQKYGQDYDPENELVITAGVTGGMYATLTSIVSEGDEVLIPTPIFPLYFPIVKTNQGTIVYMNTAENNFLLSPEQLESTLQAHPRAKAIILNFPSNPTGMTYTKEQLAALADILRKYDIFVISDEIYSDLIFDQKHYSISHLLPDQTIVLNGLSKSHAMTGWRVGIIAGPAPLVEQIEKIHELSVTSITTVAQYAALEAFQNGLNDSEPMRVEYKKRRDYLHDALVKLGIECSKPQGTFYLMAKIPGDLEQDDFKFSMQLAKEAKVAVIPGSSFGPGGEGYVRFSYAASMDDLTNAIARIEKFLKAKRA
Put plainly: HPLC of amino acids formed. Format: biochemical. The conditions noted are these: amino acceptor; leucine, AABA or alanine as amino donor, 50 uM pyridoxal 5-phosphate, pH 5.5, 37 °C, 1 h.

The target of experiment [2] is T1, Aat (recombinant His-tagged aminotransferase). Kind of experiment: coupled assay, glutamate formed measured with glutamate dehydrogenase/diaphorase. As to conditions: amino donor; 5 mM amino acid, 10 mM alpha-ketoglutarate, 50 uM pyridoxal 5-phosphate, pH 5.5, 37 °C. Format: biochemical.

Turning to `CCC(=O)C(=O)O` [AKB, α-ketobutyrate], the “HPLC of amino acids formed” value in experiment [1] was “AKB, pyruvate, KMTB, KIC, and PPA significantly preferred amino group acceptors to AKG”.

Regarding `CC(C)C[C@H](N)C(=O)O` [Leu, L-leucine], in experiment [2], the “coupled assay, glutamate formed measured with glutamate dehydrogenase/diaphorase” value is “the enzyme transferred the amino group from leucine, methionine, AABA, alanine, cysteine, and phenylalanine”.
